Assay results taken from patent US20110230472A1, “RING-FUSED AZOLE DERIVATIVE HAVING PI3K-INHIBITING ACTIVITY” (Shionogi & Co., Ltd., priority 2008, published 2011).
pKi: −log10 of the molar value.

What was measured:
Metabolic stability test = type: in vitro ADME; details: human liver microsome 0.5 mg protein/mL, 1 mmol/L NADPH, 37° C.
Protocol: After a subject compound was reacted for a certain time using a pooled human liver microsome commercially available, a reacted sample and an unreacted sample are compared to calculate a survival ratio, and then the degree of metabolism in the liver was evaluated.
0.2 mL of a buffer solution (50 mmol/L of Tris-HCl in pH 7.4, 150 mmol/L of potassium chloride, and 10 mmol/L of magnesium chloride) containing a human liver microsome of 0.5 mg protein/mL was reacted in the presence of 1 mmol/L NADPH at 37° C. for 0 or 30 minutes (oxidative reaction). After reacting, 50 μL of the reaction solution was added to 100 μL of a solution of methanol/acetonitrile (1/1 (v/v)), mixed, and then centrifuged at 3000 rpm for 15 minutes. The test compound in the supernatant was quantitated with LC/MS/MS. The amount of the compound at a reaction time of 0 minute was defined as 100% and, based on that, the percentage of the test compound remained after reacting for 30 minutes was calculated.

PI-3 kinase γ [1] = target: T1, PI-3 kinase γ (Homo sapiens, UniProt P48736); experiment: PI3Kγ inhibitory activity, PI3-kinase HTRF assay (inhibition ratio); type: biochemical; details: 0.5 h
In short: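 PI3Kγ preincubated 10 min with compound and PIP2 substrate (MgCl2, DTT), then ATP added for 30 min at room temperature. PIP3 detected by HTRF (665/620 nm ratio) after 18 h. Inhibition ratio at 50 or 10 μmol/L, normalised to no-compound and no-enzyme controls.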

Solubility test = type: physicochemical; details: kinetic from dmso stock; artificial intestinal juice pH 6.8, 1% DMSO, 25° C. for 16 hours
In short: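 Kinetic solubility with 1% DMSO: compound from 10 mmol/L DMSO stock spiked into pH 6.8 phosphate artificial intestinal juice, held 16 h at 25 °C, then suction-filtered. Filtrate diluted twofold in methanol/water (1/1) and quantified by HPLC or LC/MS/MS via absolute calibration.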

[2] = target: T2, human ether-a-go-go related gene (hERG) channel (Homo sapiens, UniProt Q12809); experiment: hERG test, whole-cell patch-clamp; type: cell-based; details: HEK293 cell expressing hERG; applied for 10 minutes; concentration not given
T2 construct: expressed in transfected cells; host or cells: HEK293
Excerpt: For the purpose of risk evaluation of QT interval extension of electrocardiogram, the activity on delayed rectification K^+ current (IKr), which plays an important role in a cardiac ventricle repolarization process, was examined using the HEK293 cell that was made to express human ether-a-go-go related gene (hERG) channel.
Using an automatic patch-clamp system (PatchXpress 7000A, Axon Instruments Inc.), by a whole-cell patch-clamp method, after the cell was maintained at a membrane potential of −80 mV, IKr induced upon applying depolarizing stimulation of +50 mV for 2 seconds and further applying repolarizing stimulation of −50 mV for 2 seconds was recorded. After generated electric current became stable, a test substance dissolved at an intended concentration in extracellular fluid (137 mmol/L NaCl, 4 mmol/L KCl, 1.8 mmol/L CaCl2.2H2O, 1 mmol/L MgCl2.6H2O, 10 mmol/L glucose, 10 mmol/L HEPES (4-(2-hydroxyethyl)-1-piperazineethanesulfonic acid), pH=7.4) was applied to the cell for 10 minutes under room temperature condition. From the obtained IKr, the absolute value of the maximum tail current was measured using analysis software (DataXpress ver. 1, Molecular Devices Corporation) and the value of the electric current in a maintained membrane potential as baseline. Moreover, an inhibition ratio for the maximum tail current prior to the application of the test substance was calculated and then compared with a group of media-application (0.1% dimethylsulfoxide solution) to evaluate influence of the test substance on IKr.

PI-3 kinase γ [3] = target: T1, PI-3 kinase γ; experiment: PI3Kγ inhibitory activity (Ki value), HTRF; type: biochemical; details: Ki=IC50/(1+10 μM ATP/Km)
Protocol: The PI3Kγ inhibitory activity (Ki value) of a compound was evaluated according to the following procedure:
5 μL of a compound solution containing 10% DMSO and 200 μmol/L of a compound was changed to 5 μL of a compound solution containing 10% DMSO and either 200, 64, 20, 6.4, 2, 0.64, or 0.20 μmol/L of the compound (optionally, this is diluted to a lower concentration). Using a method similar to the method for measuring PI3Kγ inhibitory activity, inhibition ratios were measured in the presence of the compound at 50, 16, 5, 1.6, 0.5, 0.16, and 0.05 μmol/L (optionally, a lower concentration). Then an IC50 value was calculated by a logistic approximation method or the linear regression method using two concentrations that across 50% inhibition. Separately, the ATP concentration in the reaction solution (40 μmol/L ATP, 10 mmol/L MgCl2, 5 mmol/L DTT) at the time of the start of a reaction in the absence of the compound was changed to 80, 40, 20, 10, 5, 2.5, 1.25, or 0.625 μmol/L. Then, HTRF ratios were measured by a similar method. The value obtained by subtracting the HTRF ratio at each ATP concentration from the HTRF ratio in the absence of PI-3 kinase γ was defined as the value obtained by multiplying reaction rate (v) at each ATP concentration with a constant. The Michaelis-Menten constant Km was then calculated by the Lineweaver-Burk plot method. The Ki value of a compound was calculated by the following formula.
Ki=IC50 value/(1+10 μM (test ATP concentration)/Km (μM))

[4] = system: Salmonella typhimurium TA98 line, TA100 line; experiment: FAT test (mutagenicity); design: key: When the mutagenicity is negative, the compound is shown as (−); When positive, the compound is shown as (+); details: TA98 and TA100 lines; non-metabolism-activation and metabolism-activation conditions
Protocol: 20 μL of Salmonella enterica subsp. typhimurium (Salmonella typhimurium TA98 line, TA100 line) cryopreserved was inoculated to 10 mL of liquid nutrient medium (2.5% Oxoid nutrient broth No. 2) and then precultured at 37° C. for 10 hours with shaking. Regarding TA98 line, after 9 mL of a bacterial suspension was centrifuged (2000×g, 10 minutes) to remove the culture solution, the bacteria was suspended in 9 mL of Micro F buffer solution (K2HPO4: 3.5 g/L, KH2PO4: 1 g/L, (NH4)2SO4: 1 g/L, tri-sodium citric acid dihydrate: 0.25 g/L, MgSO4.7H2O: 0.1 g/L), and then added to 110 mL of Exposure media (Micro F buffer solution containing biotin: 8 μg/mL, histidine: 0.2 μg/mL, glucose: 8 mg/mL). Regarding TA 100 line, 120 mL of Exposure media was added to 3.16 mL of the bacterial suspension to prepare a test bacterial suspension. 12 μL of a solution of a test substance in DMSO (diluted eight times in a common ratio of 2 from the maximum dose of 50 mg/mL); 12 μL of DMSO as a negative control; 50 μg/mL 4-nitroquinoline-1-oxide solution in DMSO for TA98 line or 0.25 μg/mL 2-(2-furyl)-3-(5-nitro-2-furyl)acrylamide solution in DMSO as a positive control for TA 100 line in the case of a non-metabolism-activation condition; 12 μL of 40 μg/mL 2-aminoanthracene solution in DMSO for TA98 line or 20 μg/mL of 2-aminoanthracene solution in DMSO for TA100 line in the case of a metabolism-activation condition; were each mixed with 588 μL of the test bacterial suspension (in the case of a metabolism activation condition, a mixed solution of 498 μL of the test bacterial suspension and 90 μL S9 mix) and then cultured at 37° C. at 90 minutes with shaking. 460 μL of the bacterial suspension to which a test substance was exposed was mixed with 230 μL of Indicator media (a Micro F buffer solution containing 8 μg/mL biotin, 0.2 μg/mL histidine, 8 mg/mL glucose, and 37.5 μg/mL bromocresol purple). 50 μL thereof was dispensed to microplate 48 wells/dose and then statically cultured at 37° C. for 3 days. In a well containing bacteria which obtained proliferation potency by mutation of the amino acid (histidine) synthetase gene, the change of pH caused the color change from purple to yellow. Thus, in 48 wells per dose, the number of the bacteria-proliferation wells in which the color changed to yellow was counted, compared with a group of negative controls, and then evaluated. When the mutagenicity is negative, the compound is shown as (−). When positive, the compound is shown as (+).
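For percentage of the test compound remained after reacting for 30 minutes in this document: 100% equals the compound amount at 0 min reaction.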

T1 sequence (P48736 whole entry): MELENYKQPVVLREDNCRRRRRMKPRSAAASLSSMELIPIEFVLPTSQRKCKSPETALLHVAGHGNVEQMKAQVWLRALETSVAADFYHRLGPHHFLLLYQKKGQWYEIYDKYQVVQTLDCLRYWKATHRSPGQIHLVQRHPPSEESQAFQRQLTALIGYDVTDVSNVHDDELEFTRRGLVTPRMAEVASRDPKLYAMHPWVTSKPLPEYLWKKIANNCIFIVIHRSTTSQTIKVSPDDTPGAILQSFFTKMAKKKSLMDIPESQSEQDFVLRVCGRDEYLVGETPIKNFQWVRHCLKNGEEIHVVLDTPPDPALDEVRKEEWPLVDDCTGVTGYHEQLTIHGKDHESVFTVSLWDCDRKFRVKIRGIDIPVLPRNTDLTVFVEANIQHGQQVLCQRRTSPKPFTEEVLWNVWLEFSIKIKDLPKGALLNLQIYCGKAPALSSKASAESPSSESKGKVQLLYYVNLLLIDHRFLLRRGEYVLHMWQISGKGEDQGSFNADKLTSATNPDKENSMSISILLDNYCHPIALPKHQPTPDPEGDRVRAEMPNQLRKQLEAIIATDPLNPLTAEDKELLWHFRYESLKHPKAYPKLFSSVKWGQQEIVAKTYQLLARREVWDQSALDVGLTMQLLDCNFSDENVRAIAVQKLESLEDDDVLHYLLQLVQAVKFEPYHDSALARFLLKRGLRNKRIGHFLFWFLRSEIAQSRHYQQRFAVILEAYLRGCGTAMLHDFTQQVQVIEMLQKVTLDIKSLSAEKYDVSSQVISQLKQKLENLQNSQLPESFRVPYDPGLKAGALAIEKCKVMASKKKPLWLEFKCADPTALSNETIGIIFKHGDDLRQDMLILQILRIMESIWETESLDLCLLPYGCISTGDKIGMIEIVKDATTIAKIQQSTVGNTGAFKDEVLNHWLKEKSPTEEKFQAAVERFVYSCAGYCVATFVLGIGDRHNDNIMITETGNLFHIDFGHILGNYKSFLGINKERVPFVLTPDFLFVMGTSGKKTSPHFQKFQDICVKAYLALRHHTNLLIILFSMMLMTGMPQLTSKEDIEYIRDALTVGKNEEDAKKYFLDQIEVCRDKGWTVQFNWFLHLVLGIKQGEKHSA
T2 sequence (Q12809 whole entry): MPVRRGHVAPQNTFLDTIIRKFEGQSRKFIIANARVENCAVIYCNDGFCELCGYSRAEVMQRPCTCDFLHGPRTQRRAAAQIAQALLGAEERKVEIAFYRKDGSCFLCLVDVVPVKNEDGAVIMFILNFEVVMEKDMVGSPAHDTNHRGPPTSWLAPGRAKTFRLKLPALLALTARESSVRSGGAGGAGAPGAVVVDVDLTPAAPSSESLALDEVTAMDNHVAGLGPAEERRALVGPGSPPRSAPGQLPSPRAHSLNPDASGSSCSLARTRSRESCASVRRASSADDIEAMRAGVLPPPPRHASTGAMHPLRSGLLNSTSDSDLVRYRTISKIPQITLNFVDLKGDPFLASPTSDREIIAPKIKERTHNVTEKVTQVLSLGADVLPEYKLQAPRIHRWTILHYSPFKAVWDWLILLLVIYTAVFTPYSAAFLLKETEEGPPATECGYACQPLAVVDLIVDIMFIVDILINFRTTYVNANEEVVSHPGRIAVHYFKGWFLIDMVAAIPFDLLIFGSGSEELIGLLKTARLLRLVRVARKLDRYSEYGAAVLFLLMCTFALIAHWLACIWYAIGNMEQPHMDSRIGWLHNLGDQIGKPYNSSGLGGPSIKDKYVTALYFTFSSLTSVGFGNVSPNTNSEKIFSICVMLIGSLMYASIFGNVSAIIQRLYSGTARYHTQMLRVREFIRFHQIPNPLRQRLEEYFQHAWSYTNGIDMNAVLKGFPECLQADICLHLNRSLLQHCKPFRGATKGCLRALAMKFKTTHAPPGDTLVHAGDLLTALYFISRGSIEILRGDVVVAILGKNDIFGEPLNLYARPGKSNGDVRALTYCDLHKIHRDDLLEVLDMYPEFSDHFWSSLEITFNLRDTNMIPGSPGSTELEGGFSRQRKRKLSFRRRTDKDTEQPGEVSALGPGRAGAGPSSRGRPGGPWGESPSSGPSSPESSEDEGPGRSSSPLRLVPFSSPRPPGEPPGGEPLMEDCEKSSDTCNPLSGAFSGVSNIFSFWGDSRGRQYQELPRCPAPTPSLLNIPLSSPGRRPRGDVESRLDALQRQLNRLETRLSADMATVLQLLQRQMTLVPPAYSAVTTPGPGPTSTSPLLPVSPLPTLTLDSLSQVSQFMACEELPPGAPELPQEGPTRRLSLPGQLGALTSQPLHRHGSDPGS

| SMILES | percentage of the test compound remained after reacting for 30 minutes (Metabolic stability test) | inhibition at 50 µM (PI-3 kinase γ [1]; PI3Kγ, compound at 50 μM) | solubility at 16 h (Solubility test) | inhibition ratio for the maximum tail current (IKr) [2] | pKi (PI-3 kinase γ [3]) | inhibition at 10 µM (PI-3 kinase γ [1]; PI3Kγ, compound at 10 μM) | mutagenicity (FAT test) [4] | inhibition at 10 µM (PI-3 kinase γ [1]; compound at 10 μmol/L) |
| --- | --- | --- | --- | --- | --- | --- | --- | --- |
| CC(=O)Nc1nc2c(s1)CN(c1ccccc1)CC2 [Compound I-230] | 87.9% | 81% | > 50 µM | 9.1% |  |  |  |  |
| COc1cc(N2CCc3nc(NC(=O)NCCC(=O)O)sc3C2)nc(OC)n1.Cl.Cl [Compound I-262] | 92.8% |  | > 50 µM | 1.6% | 7.33 | ≥ 95% |  |  |
| CNC(=O)Nc1nc2c(s1)CN(c1nc(OC)nc(OC)n1)CC2 [Compound I-327] |  |  |  |  |  |  | (−) | 84% |
| CC(C)Oc1cc(C(=O)Nc2cc3n(n2)CCN3c2ccc3c(c2)CCN(C)C3=O)on1 [Compound I-403] |  |  |  |  |  |  | (−) | ≥ 95% |
